# Experimental data from US20040038950A1, “Pharmaceutical composition for treating IL-1 related diseases or disorders” (priority 2002, published 2004).
# Assays:
# [1] = tested on: MMP-3 mRNA; test: RT-PCR of MMP-3 mRNA in chondrocytes; type: cell-based, human
# Procedure: (§1) Chondrocytes were isolated from the knee joint of patient undergoing a knee replacement due to osteoarthritis. Cartilage was digested with 0.2% protease Type XIV (Sigma) for 1 hour, followed by 3-hour incubation with 0.2% collagenase Type IA (Sigma) at 37° C. Following the incubation, the undigested cartilage fragments were removed using a 70 μm Nylon sieve. Chondrocytes were washed with DPBS and maintained in monolayer culture for 7 days in Dulbecco's modified Eagle's medium (DMEM; Life Technologies Inc.) which contained 10% fetal bovine serum (FBS; Life Technologies), 100 units/ml penicillin-streptomycin (Life Technologies) and 25 μg/ml L-ascorbic acid (Sigma). All experiments were performed with primary or first passage cells. The preparation of chondrocytes in alginate beads was carried out with 4×10^6 cells per 1 ml of alginate. Alginate cultures were maintained for 7 days at 37° C., 5% CO2 and 95% humidity and incubated with various concentrations of DHEA (0, 10, 50 or 100 μM) for a varing period of time. DHEA was purchased from Sigma and used after dissolving either in ethanol or dimethyl sulfoxide (DMSO). After a desired incubation period, cells were harvested by solubilizing the alginate beads in citrate buffer (55 mM sodium citrate, 0.15 M NaCl, pH 7.0) for 10 min at 37° C. and by centrifugation (300 g, 5 min).
# Total RNA from chondrocytes was extracted using RNeasy Mini Kit (QIAGEN). Reverse transcription from 1 μg of total RNA was conducted using First Strand cDNA Synthesis Kit (MBI Fermentas) according to manufacturer's recommendation with random hexamers. […] All reactions were determined to be in the linear range of amplification with the cycle number ranging from 14 to 30. The PCR products were analyzed by separation on a 2% agarose gel followed by ethidium bromide staining. Following electrophoresis, photographs were taken and analyzed using a densitometric program (TINA; Raytest Isotopenmeβgerate, Germany). […] After normalizing with respect to GAPDH, percentage increase or decrease was determined. […]
# [2] = tested on: MMP-1 mRNA; test: RT-PCR of MMP-1 mRNA in chondrocytes; type: cell-based, human; conditions: 100 μM
# Procedure: as §1
# (§2) Total RNA from chondrocytes was extracted using RNeasy Mini Kit (QIAGEN). Reverse transcription from 1 μg of total RNA was conducted using First Strand cDNA Synthesis Kit (MBI Fermentas) according to manufacturer's recommendation with random hexamers. The resulting cDNA was then amplified by polymerase chain reaction using AccuPower PCR Premix (Bioneer, Korea) in a final volume of 20 μl using three thermocycler temperatures (30 sec at […], 30 sec at 60° C., and 30 sec at […]). All reactions were determined to be in the linear range of amplification with the cycle number ranging from 14 to 30. The PCR products were analyzed by separation on a 2% agarose gel followed by ethidium bromide staining. Following electrophoresis, photographs were taken and analyzed using a densitometric program (TINA; Raytest Isotopenmeβgerate, Germany). Integrated density values for the genes in question were then normalized to the glyceraldehyde-3-phosphate dehydrogenase (GAPDH) values for a semiquantitative assessment. After normalizing with respect to GAPDH, percentage increase or decrease was determined. Each experiment was repeated at least three times. […]
# [3] = tested on: (IL-1β)-induced Cox-2 gene expression; test: (IL-1β)-induced Cox-2 gene expression in chondrocytes; type: cell-based, human; conditions: 10, 50, 100 μM with IL-1β, 72 hr
# Procedure: Sixteen hours prior to a treatment, the complete culture medium was replaced with a serum-free medium. Chondrocyte alginate bead cultures were then treated with IL-1β ([…], (Calbiochem) and DHEA (0, 10, 50 or 100 μM) for 3 days.
# as §2
# [4] = tested on: patients diagnosed to have degenerative arthritis; test: Topical application of DHEA to arthritic patient; type: in vivo, human; conditions: for resting pain score: before 14.34; for joint effusion score: before 2.12; for medial joint line tenderness score: before 2.18; for motion pain score: before 8.11; for pain at ascending/descending stairs score: before 10.87
# Procedure: Ten patients diagnosed to have degenerative arthritis were tested to investigate the therapeutic effect of DHEA in topical application. Testees had the symptoms including dolor of knee joint (resting or motion pain), swelling, deformation, tenderness, crepitation or stiffness of joint. Patients who had received intraarticular injection, steroid treatment or surgery within 1 month before this test were excluded, as well as those who had severe cardiac or liver diseases, kidney failure, gastrointestinal diseases, or poor systemic condition such as anomalotrophy. Besides, women who were pregnant or breast-feeding babies were excluded in this study.
# The volunteers were randomly grouped into Group I and Group II, and subject to the experiment for topical application of DHEA. A portion of knee joint showing dolor symptom was coated with either 5% DHEA or PBS (phosphate buffered saline) twice a day for 1 month. Any alteration of symptom was checked prior to the application, 1 week and then again 1 month during the application regimen.
# The severity of pain was scored ranging from 0 (most severe pain) to 20 points (no pain) at an interval of 5 points.
# In addition, both joint effusion and medial joint-line tenderness were recorded during a physical test administered by a doctor based on the point rating scale: highness, 4; medium, 3; slightness, 2; and not found, 0.
# The opinions on symptom were recorded as 5 categories relying on the subjective opinions of patients and the opinions of doctors regarding both dolor of patients and the results of physical tests: superiority, goodness, mediocrity, poorness and exceeding poorness.
# In addition, the assessment regarding the level of improvement on symptoms was recorded in accordance with the following criteria: 3-step improvement, “exceeding improvement”; 2-step improvement, “improvement”; 1-step improvement, “slight improvement”; “no change”; and “aggravation”.
# [5] = Group I (5 patients), 1 month after application
# [6] = Group I, topical, 1 month after application
# [7] = Group I, topical, 1 week after application
# [8] = Group I, topical, 1 week and 1 month vs before application
compound,measurement,setting,value
"C[C@]12CC[C@H](O)CC1=CC[C@@H]1[C@@H]2CC[C@]2(C)C(=O)CC[C@@H]12 [DHEA, dehyroepiandrosterone]","MMP-3 mRNA expression, decreased by","[1]; 100 μM, after 24 hr of culture",73%
same,"inhibitory activity of DHEA on the MMP-3, increase by","[1]; 100 μM, after 72 hr",131%
same,"MMP-3 production, inhibition","[1]; 10-100 μM, 72 hours, not dose-dependent",82-93%
same,"MMP-1 level, inhibition",[2]; 72 hours,48%
same,"MMP-1 mRNA level, reduced by",[2]; after 24 hr,43%
same,"MMP-1 mRNA level, reduced by",[2]; after 48 hr,35%
same,MMP-1 mRNA expression,[2]; after 72 hr,markly inhibited
same,(IL-1β)-induced Cox-2 gene expression,[3],no significantly change
same,opinion of doctor: no change,[4]; [5],4 persons
same,opinion of doctor: slight improvement,[4]; [5],1 person
same,opinion of patient: aggravation,[4]; [5],1 person
same,opinion of patient: no change,[4]; [5],3 persons
same,opinion of patient: slight improvement,[4]; [5],1 person
same,resting pain score,"[4]; Group I, topical 5% DHEA twice a day, 1 week after application",15.29 points
same,joint effusion score,[4]; [6],2.27 points
same,medial joint line tenderness score,[4]; [6],2.54 points
same,motion pain score,[4]; [6],8.51 points
same,pain at ascending/descending stairs score,[4]; [6],10.49 points
same,resting pain score,[4]; [6],15.02 points
same,joint effusion score,[4]; [7],1.98 points
same,medial joint line tenderness score,[4]; [7],2.11 points
same,motion pain score,[4]; [7],8.34 points
same,pain at ascending/descending stairs score,[4]; [7],10.11 points
same,change of joint effusion,[4]; [8],not a significant change
same,change of medial joint line tenderness,[4]; [8],not a significant change
same,change of motion pain,[4]; [8],not a significant change
same,change of pain at ascending/descending stairs,[4]; [8],not a significant change
same,change of resting pain,[4]; [8],not a significant change
